Assay results: patent US20240158446A1, “CYCLIC COMPOUND HAVING SELECTIVE INHIBITORY ACTION ON KRAS OVER HRAS AND NRAS” (CHUGAI SEIYAKU KABUSHIKI KAISHA, priority 2021, published 2024)
Like-named read-outs stand apart in the source and are kept apart here.

Key:
[1] = molecular target: GDP-bound NRAS wild-type protein (Homo sapiens, UniProt P01111); assay: Binding to NRAS by surface plasmon resonance (SPR), Single Cycle Kinetics; details: for NRAS/KRAS (ratio of KD value for NRAS to KD value for KRAS): SPR, GDP-bound NRAS wild-type protein vs GDP-bound KRAS wild-type protein; for NRAS/KRAS (ratio of KD value with respect to GDP-bound NRAS wild-type protein to KD value with respect to KRAS): SPR KD ratio NRAS/KRAS, class symbols
[2] = molecular target: GDP-bound HRAS wild-type protein (Homo sapiens, UniProt P01112); assay: Binding to HRAS by surface plasmon resonance (SPR), Single Cycle Kinetics; details: for HRAS/KRAS (ratio of KD value for HRAS to KD value for KRAS): SPR, GDP-bound HRAS wild-type protein vs GDP-bound KRAS wild-type protein; for HRAS/KRAS (ratio of KD value with respect to GDP-bound HRAS wild-type protein to KD value with respect to KRAS): SPR KD ratio HRAS/KRAS, class symbols
[3] = molecular target: GDP-bound KRAS wild-type protein (Homo sapiens, UniProt P01116); assay: Binding to KRAS by surface plasmon resonance (SPR), Single Cycle Kinetics; details: GDP-bound KRAS wild-type protein, read-out: KRAS KD
[4] = SPR Single Cycle Kinetics, 1:1 binding model

Chain of GDP-bound NRAS wild-type protein (P01111 whole entry): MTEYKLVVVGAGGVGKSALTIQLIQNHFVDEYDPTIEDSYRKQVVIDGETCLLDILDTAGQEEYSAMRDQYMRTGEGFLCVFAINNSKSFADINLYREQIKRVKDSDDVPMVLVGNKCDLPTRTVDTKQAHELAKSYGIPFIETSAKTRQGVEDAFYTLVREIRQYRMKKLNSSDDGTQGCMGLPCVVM
Chain of GDP-bound KRAS wild-type protein (P01116 whole entry): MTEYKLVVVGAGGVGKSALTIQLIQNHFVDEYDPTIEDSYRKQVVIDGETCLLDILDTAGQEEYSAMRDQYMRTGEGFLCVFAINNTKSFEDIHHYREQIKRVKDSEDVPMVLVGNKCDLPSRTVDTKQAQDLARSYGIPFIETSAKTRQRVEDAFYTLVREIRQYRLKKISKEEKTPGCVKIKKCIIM
Chain of GDP-bound HRAS wild-type protein (P01112 whole entry): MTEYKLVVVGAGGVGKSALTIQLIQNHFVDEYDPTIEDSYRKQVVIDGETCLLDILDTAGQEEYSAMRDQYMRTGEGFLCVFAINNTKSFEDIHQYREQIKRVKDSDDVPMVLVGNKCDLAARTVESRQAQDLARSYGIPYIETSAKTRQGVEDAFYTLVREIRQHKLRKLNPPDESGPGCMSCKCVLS

Compound | NRAS/KRAS (ratio of KD value for NRAS to KD value for KRAS) [1] | HRAS/KRAS (ratio of KD value for HRAS to KD value for KRAS) [2] | Kd ([3]; SPR, Single Cycle Kinetics) | NRAS/KRAS (ratio of KD value with respect to GDP-bound NRAS wild-type protein to KD value with respect to KRAS) [1] | HRAS/KRAS (ratio of KD value with respect to GDP-bound HRAS wild-type protein to KD value with respect to KRAS) [2] | Kd [3, 4]
CCC[C@H]1C(=O)N[C@@H]([C@@H](C)CC)C(=O)N(C2CC2)CC(=O)N(C)[C@H]2C/C=C\CCN(C2=O)[C@@H](CC2CCC(F)(F)CC2)C(=O)N(C)CC(=O)N[C@@H](CCc2ccc(C(F)(F)F)c(OC)c2)C(=O)N2C[C@H](OCC)C[C@H]2C(=O)N(C)C2(CCC2)C(=O)N(C)[C@@H](C(CC)CC)C(=O)N(C)[C@H](C(=O)N(C)C)CC(=O)N1C [PP2349] | A (a compound having 10 or more and less than 20 is denoted as A) | A (a compound having 10 or more and less than 20 is denoted as A) | 3.8 nM |  |  | 
CCCOC[C@H]1C(=O)N[C@@H]([C@@H](C)CC)C(=O)N(C)CC(=O)N(C)[C@H]2C/C=C\CCN(C2=O)[C@@H](CC2CCC(F)(F)CC2)C(=O)N(C)CC(=O)N[C@@H](CCc2ccc(C(F)(F)F)c(OC)c2)C(=O)N2C[C@H](OCC)C[C@H]2C(=O)N(C)C2(CCC2)C(=O)N(C)[C@@H](C2CCCC2)C(=O)N(C)[C@H](C(=O)N(C)C)CC(=O)N1C [PP2350] | A (a compound having 10 or more and less than 20 is denoted as A) | A (a compound having 10 or more and less than 20 is denoted as A) | 0.35 nM |  |  | 
CCC[C@H]1C(=O)N[C@@H]([C@@H](C)CC)C(=O)N(C2CC2)CC(=O)N(C)[C@H]2C/C=C\CCN(C2=O)[C@@H](CC2CCC(F)(F)CC2)C(=O)N(C)CC(=O)N[C@@H](CCc2ccc(C(F)(F)F)c(OC)c2)C(=O)N2C[C@H](OCC)C[C@H]2C(=O)N(C)C2(CCC2)C(=O)N(C)[C@@H](C2CCCC2)C(=O)N(C)[C@H](C(=O)N(C)C)CC(=O)N1C [PP2352] | A (a compound having 10 or more and less than 20 is denoted as A) | A (a compound having 10 or more and less than 20 is denoted as A) | 0.76 nM |  |  | 
CCC[C@H]1C(=O)N[C@@H]([C@@H](C)CC)C(=O)N2CCC[C@H]2C(=O)N(C)[C@H]2C/C=C\CCN(C2=O)[C@@H](CC2CCC(F)(F)CC2)C(=O)N(C)CC(=O)N[C@@H](CCc2ccc(C(F)(F)F)c(OC)c2)C(=O)N2C[C@H](OCC)C[C@H]2C(=O)N(C)C2(CCC2)C(=O)N(C)[C@@H](C(CC)CC)C(=O)N(C)[C@H](C(=O)N(C)C)CC(=O)N1C [PP2353] | A (a compound having 10 or more and less than 20 is denoted as A) | A (a compound having 10 or more and less than 20 is denoted as A) | 4.1 nM |  |  | 
CC[C@H](C)[C@@H]1NC(=O)[C@H](COC)N(C)C(=O)C[C@@H](C(=O)N(C)C)N(C)C(=O)[C@H](C2CCCC2)N(C)C(=O)C2(CC(C)(C)C2)NC(=O)[C@@H]2C[C@@H](C)CN2C(=O)[C@H](CCc2ccc(C(F)(F)F)c(OC)c2)NC(=O)CN(C)C(=O)[C@H](Cc2ccc(C)cc2)N2CC/C=C\C[C@@H](C2=O)N(C)C(=O)CN(C)C1=O [PP2387] | A (a compound having 10 or more and less than 20 is denoted as A) | A (a compound having 10 or more and less than 20 is denoted as A) | 0.11 nM |  |  | 
CC[C@H](C)[C@@H]1NC(=O)[C@H](COC)N(C)C(=O)C[C@@H](C(=O)N(C)C)N(C)C(=O)[C@H](C2CCCC2)N(C)C(=O)C2(CC(C)(C)C2)NC(=O)[C@@H]2C[C@@H](OC(C)C)CN2C(=O)[C@H](CCc2cc(F)c(C(F)(F)F)c(F)c2)NC(=O)CN(C)C(=O)[C@H](CC2CCCCC2)N2CC/C=C\C[C@@H](C2=O)N(C)C(=O)CN(C2CC2)C1=O [PP2511] | A (a compound having 10 or more and less than 20 is denoted as A) | A (a compound having 10 or more and less than 20 is denoted as A) | 0.95 nM |  |  | 
CCO[C@@H]1C[C@H]2C(=O)NC3(CC(C)(C)C3)C(=O)N(C)[C@@H](C3CCCC3)C(=O)N(C)[C@H](C(=O)N3CCCCC3)CC(=O)N(C)[C@H]3CCC/C=C/c4ccc(cc4)C[C@@H](C(=O)N(C)CC(=O)N[C@@H](CCc4cc(F)c(C(F)(F)F)c(F)c4)C(=O)N2C1)N1CC/C=C\C[C@@H](C1=O)N(C)C(=O)CN(C)C(=O)[C@H]([C@@H](C)CC)NC3=O [PP2573] |  |  |  | A (a compound having 10 or more and less than 20 is denoted as A) | A (a compound having 10 or more and less than 20 is denoted as A) | 0.1 nM
CCO[C@@H]1C[C@H]2C(=O)NC3(CC(C)(C)C3)C(=O)N(C)[C@@H](C3CCCC3)C(=O)N(C)[C@H](C(=O)N3CCCC3)CC(=O)N(C)[C@H]3CCC/C=C/c4ccc(cc4)C[C@@H](C(=O)N(C)CC(=O)N[C@@H](CCc4cc(F)c(C(F)(F)F)c(F)c4)C(=O)N2C1)N1CC/C=C\C[C@@H](C1=O)N(C)C(=O)CN(C)C(=O)[C@H]([C@@H](C)CC)NC3=O [PP2574, (1S,7S,11R,13S,19S,22S,26S,29S,35S,37Z,47E)-19-cyclopentyl-7-[2-[3,5-difluoro-4-(trifluoromethyl)phenyl]ethyl]-11-ethoxy-3,3′,3′,18,21,25,31,34-octamethyl-29-[(1S)-1-methylpropyl]-22-(pyrrolidine-1-carbonyl)spiro[3,6,9,15,18,21,25,28,31,34,41-undecazapentacyclo[24.15.10.2^43,46.1^35,41.0^9,13]tetrapentaconta-37,43(53),44,46(52),47-pentaene-16,1′-cyclobutane]-2,5,8,14,17,20,24,27,30,33,54-undecone] |  |  |  | A (a compound having 10 or more and less than 20 is denoted as A) | A (a compound having 10 or more and less than 20 is denoted as A) | 0.051 nM
CCO[C@@H]1C[C@H]2C(=O)NC3(CC(C)(C)C3)C(=O)N(C)[C@@H](C(CC)CC)C(=O)N(C)[C@H](C(=O)N(C)C)CC(=O)N(C)[C@H]3CCC/C=C/c4ccc(cc4)C[C@@H](C(=O)N(C)CC(=O)N[C@@H](CCc4cc(F)c(C(F)(F)F)c(F)c4)C(=O)N2C1)N1CC/C=C\C[C@@H](C1=O)N(C)C(=O)CN(C)C(=O)[C@H]([C@@H](C)CC)NC3=O [PP2575] |  |  |  | A (a compound having 10 or more and less than 20 is denoted as A) | A (a compound having 10 or more and less than 20 is denoted as A) | 0.086 nM
CCO[C@@H]1C[C@H]2C(=O)NC3(CC(C)(C)C3)C(=O)N(C)[C@@H](C(CC)CC)C(=O)N(C)[C@H](C(=O)N3CCCC3)CC(=O)N(C)[C@H]3CCC/C=C/c4ccc(cc4)C[C@@H](C(=O)N(C)CC(=O)N[C@@H](CCc4cc(F)c(C(F)(F)F)c(F)c4)C(=O)N2C1)N1CC/C=C\C[C@@H](C1=O)N(C)C(=O)CN(C)C(=O)[C@H]([C@@H](C)CC)NC3=O [PP2576] |  |  |  | A (a compound having 10 or more and less than 20 is denoted as A) | A (a compound having 10 or more and less than 20 is denoted as A) | 0.14 nM
CCO[C@@H]1C[C@H]2C(=O)NC3(CC(C)(C)C3)C(=O)N(C)[C@@H](C3CCCC3)C(=O)N(C)[C@H](C(=O)N(C)CC)CC(=O)N(C)[C@H]3CCC/C=C/c4ccc(cc4)C[C@@H](C(=O)N(C)CC(=O)N[C@@H](CCc4ccc(Cl)c(Cl)c4)C(=O)N2C1)N1CC/C=C\C[C@@H](C1=O)N(C)C(=O)CN(C)C(=O)[C@H]([C@@H](C)CC)NC3=O [PP2577] |  |  |  | A (a compound having 10 or more and less than 20 is denoted as A) | A (a compound having 10 or more and less than 20 is denoted as A) | 0.12 nM
CCO[C@@H]1C[C@H]2C(=O)NC3(CC(C)(C)C3)C(=O)N(C)[C@@H](C3CCCC3)C(=O)N(C)[C@H](C(=O)N3CCCCC3)CC(=O)N(C)[C@H]3CCC/C=C/c4ccc(cc4)C[C@@H](C(=O)N(C)CC(=O)N[C@@H](CCc4ccc(Cl)c(Cl)c4)C(=O)N2C1)N1CC/C=C\C[C@@H](C1=O)N(C)C(=O)CN(C)C(=O)[C@H]([C@@H](C)CC)NC3=O [PP2578] |  |  |  | AA (a compound having 20 or more is denoted as AA) | A (a compound having 10 or more and less than 20 is denoted as A) | 0.27 nM
CCO[C@@H]1C[C@H]2C(=O)NC3(CC(C)(C)C3)C(=O)N(C)[C@@H](C(CC)CC)C(=O)N(C)[C@H](C(=O)N(C)C)CC(=O)N(C)[C@H]3CCC/C=C/c4ccc(cc4)C[C@@H](C(=O)N(C)CC(=O)N[C@@H](CCc4ccc(Cl)c(Cl)c4)C(=O)N2C1)N1CC/C=C\C[C@@H](C1=O)N(C)C(=O)CN(C)C(=O)[C@H]([C@@H](C)CC)NC3=O [PP2580] |  |  |  | AA (a compound having 20 or more is denoted as AA) | A (a compound having 10 or more and less than 20 is denoted as A) | 0.2 nM
